# Laboratory results as given in patent US20110319392A1, “Thiazole Sulfonamide And Oxazole Sulfonamide Kinase Inhibitors” (priority 2009, published 2011).
# Legend:
# SK-MEL-28 tumor cells = assay: Cell growth inhibition assay (CellTiter-Glo), SK-MEL-28; format: cell-based, Human; settings: Homo sapiens, SK-MEL-28, 72 h; 3 days incubation
# Method: (§1) Human breast tumor cells (BT474) were cultured in RPMI (Mediatech […]), containing 10% FBS (JRH Biosciences 12176) and 1% penicillin-streptomycin (Invitrogen 15140). Human head and neck tumor cells (HN5) were cultured in high glucose DMEM (Mediatech 50-013-PB) containing 10% FBS and 1% penicillin-streptomycin. Human colon tumor cells (Colo205) were cultured in RPMI (Mediatech 50-020-PB) containing 10% FBS and 1% penicillin-streptomycin. Human melanoma cancer cells (SK-MEL-28) were cultured in EMEM with nonessential amino acids (Mediatech 50-011-PB) containing 10% FBS, 1% sodium pyruvate (JT Baker 3354-04), and 1% penicillin-streptomycin. Human melanoma cancer cells (A375P F11s) were cultured in RPMI (Mediatech 50-020-PB) containing 10% FBS, 1% sodium pyruvate, and 1% penicillin-streptomycin. Human colon cancer cells (HT-29) were cultured in high glucose DMEM (Mediatech 50-013-PB) containing 10% FBS and 1% penicillin-streptomycin. Human melanoma cancer cells (SK-MEL-3) were cultured in McCoy's 5A (50-025-PB) containing 15% FBS, and 1% penicillin-streptomycin. All cell lines were maintained at 37° C. in a humidified 5% CO2, 95% air incubator. Cells were harvested using trypsin/EDTA (Invitrogen 25200), counted using a haemocytometer, and plated. For 96-well assays (using white full-area NUNC plates cat. #136102), cells were plated in 105 μL at the following densities (cells/well): HNS, 500; Colo 205, 500; SK-MEL-28, 500; A375P F11s, 500; HT-29, 500; SK-MEL-3, 500; and BT474, 3000. For 384-well assays (white full-area NUNC plates, cat. #781080), cells were plated in 48 μL at the following densities (cells/well): HNS, 500; Colo205, 500; SK-MEL-28, 500; A375P F11s, 500; HT-29, 500; SK-MEL-3, 500; and BT474, 2000.
# (§2) The next day, compounds were diluted as follow: For 96-well assays, 13.5 μL of compound in DMSO were diluted using nine (9) serial 1:3 dilutions of 4.5 μL in 9 of DMSO. Medium (270 μL/well of RPMI with 10% FBS and 1% penicillin-streptomycin) was added to the plates. Aliquots (7 μL) were added to cells in the final assay giving a final DMSO concentration of 0.2%. For 384-well assays, 15 μL of compound in DMSO were diluted using nine (9) serial 1:3 dilutions of 5 μL in 10 μL of DMSO, followed by a further dilution of 5 μL of compound with 95 μL of medium, of which 2 μL were added to cells in the final assay giving a final DMSO concentration of 0.2%. Cells were incubated at 37° C., 5% CO2 for 3 days.
# (§3) Total ATP was measured (as a surrogate estimate of cell number) using CellTiter-Glo® reagent (Promega G7571). Briefly, plates were removed from the incubator and allowed to equilibrate to room temperature for 30 minutes. CellTiter-Glo® (25 μL or 55 μL for 384-well or 96-well assays, respectively) reagent was added to each well and plates were shaken on an orbital plate shaker for 2 minutes. Plates were incubated without shaking for a further 30 minutes and read on an LJL Analyst GT reader in luminometer mode with an integration time of 0.5 seconds per well. Percent inhibition of cell growth was calculated relative to DMSO vehicle-treated control wells. Concentration of compound required to give 50% inhibition of vehicle-treated control cell growth (IC50) was interpolated using a 4-parameter fit for determining IC50 using the following equation: Y=A +((B−A)/(1+((C/X)̂D))) where […].
# EGFR = molecular target: T1, EGFR (Homo sapiens, UniProt P00533); assay: EGFR substrate phosphorylation assay (HTRF); format: biochemical
# T1 construct: made in house; host or cells: baculovirus expression system
# T1 sequence (P00533 25-1210): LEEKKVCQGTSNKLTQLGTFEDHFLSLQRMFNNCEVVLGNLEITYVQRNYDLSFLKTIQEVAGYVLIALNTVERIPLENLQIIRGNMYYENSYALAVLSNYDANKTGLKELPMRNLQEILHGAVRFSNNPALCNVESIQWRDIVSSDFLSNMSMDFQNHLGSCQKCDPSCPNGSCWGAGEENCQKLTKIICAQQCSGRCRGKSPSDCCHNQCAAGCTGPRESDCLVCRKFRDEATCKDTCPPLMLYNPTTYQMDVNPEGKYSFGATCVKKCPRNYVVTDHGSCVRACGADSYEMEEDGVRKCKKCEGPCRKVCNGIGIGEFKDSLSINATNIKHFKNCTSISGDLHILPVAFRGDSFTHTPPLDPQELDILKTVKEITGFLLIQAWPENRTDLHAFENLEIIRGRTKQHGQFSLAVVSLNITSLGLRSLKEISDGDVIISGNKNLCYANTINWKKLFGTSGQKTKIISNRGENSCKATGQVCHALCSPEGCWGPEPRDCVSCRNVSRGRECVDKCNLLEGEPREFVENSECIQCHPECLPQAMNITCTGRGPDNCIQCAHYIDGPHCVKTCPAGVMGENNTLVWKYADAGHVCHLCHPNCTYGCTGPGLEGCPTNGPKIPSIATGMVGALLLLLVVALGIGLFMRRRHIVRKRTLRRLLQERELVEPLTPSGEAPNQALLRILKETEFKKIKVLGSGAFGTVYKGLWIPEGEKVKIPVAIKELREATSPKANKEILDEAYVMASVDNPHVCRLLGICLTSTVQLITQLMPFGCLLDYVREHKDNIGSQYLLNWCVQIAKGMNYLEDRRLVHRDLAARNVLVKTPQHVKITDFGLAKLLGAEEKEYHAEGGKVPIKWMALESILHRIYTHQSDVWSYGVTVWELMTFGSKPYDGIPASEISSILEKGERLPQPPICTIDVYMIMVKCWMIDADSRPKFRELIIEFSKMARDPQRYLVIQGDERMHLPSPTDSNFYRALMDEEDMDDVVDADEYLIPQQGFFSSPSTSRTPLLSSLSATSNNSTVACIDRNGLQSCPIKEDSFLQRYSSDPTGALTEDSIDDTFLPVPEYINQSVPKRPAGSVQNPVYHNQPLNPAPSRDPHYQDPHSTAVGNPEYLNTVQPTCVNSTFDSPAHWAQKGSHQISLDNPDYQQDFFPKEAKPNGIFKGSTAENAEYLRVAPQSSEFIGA
# Method: (§4) Compounds of the present invention were tested for EGFR and ErbB-2 protein tyrosine kinase inhibitory activity in substrate phosphorylation assays using enzymes purified from a baculovirus expression system. Reagent production was conducted essentially as described in Brignola, P. S., et al, (2002) J. Biol. Chem. 277(2):1576-1585.
# (§5) The method measures the ability of the isolated enzyme to catalyse the transfer of the gamma-phosphate from ATP onto the tyrosine residue of a biotinylated synthetic peptide referenced “Peptide C” in Brignola, P. S., et al, (2002) J. Biol. Chem. 277(2):1576-1585. The extent of tyrosine phosphorylation was measured using an anti-phosphotyrosine antibody, and quantified by homogenous time-resolved fluorescence (HTRF).
# (§6) Reactions were performed in black 384-well polystyrene flat-bottom plates in a final volume of 20 μL. Assays were performed by adding 10 μL of each of the following solutions, Substrate Mix and Enzyme Mix: The Substrate Mix contained 100 mM 3-[N-morpholino]propanesulfonic acid (MOPS) (pH 7.5), 2 mM MnCl2, 20 μM ATP, 0.01% Tween-20, 0.1 mg/mL (BSA), 0.8 uM peptide substrate, and 1 mM dithiothreitol. The Enzyme Mix contained 100 mM MOPS (pH7.5); 0.01% Tween-20; 0.1 mg/mL BSA, and either 0.8 nM EGFR, 10 nM ErbB2, or 1 nM ErbB4. The Enzyme Mix was added to the compound plates and the plates were incubated at 20° C. for 1 hr. The reactions were then started by adding the Substrate Mix.
# (§7) After initiating the reaction with the method described above, the reactions were allowed to proceed for 90 minutes at 20° C. The reactions were then terminated by the addition of 20 μL 100 mM EDTA to each well. 40 μL/well of HTRF detection mix were added to the assay plates. The final concentrations of the detection reagents were: 100 mM HEPES (pH7.5), 0.1 mg/mL BSA, 15 nM streptavidin-labeled allophycocyanin (PerkinElmer), and 1 nM europium-labeled anti-phosphotyrosine antibody (Perkin Elmer). Assay plates were left unsealed and were counted in a Wallac Multilabel Counter 1420 (PerkinElmer).
# (§8) Compounds under analysis were dissolved in dimethylsulfoxide (DMSO) to 1.0 mM and serially diluted 1 to 3 with DMSO through twelve dilutions. 1 μL of each concentration was transferred to the corresponding well of an assay plate. This creates a final compound concentration range from 0.00027 to 47.6 μM.
# (§9) The data for dose responses were plotted as % Inhibition calculated with the data reduction formula 100*(1-(U1−C2)/(C1−C2)) versus concentration of compound where U1 is the unknown value, C1 is the average control value obtained for 4.76% DMSO, and C2 is the average control value obtained for 0.035 M EDTA. Data were fitted with a curve described by:
# (§10) where Vmax is the upper asymptote, Y2 is the Y intercept, and K is the IC50. The results for each compound were recorded as pIC50s, calculated as follows: […]
# ErbB2 = molecular target: T2, ErbB2 (Homo sapiens, UniProt P04626); assay: ErbB-2 substrate phosphorylation assay (HTRF); format: biochemical
# T2 construct: made in house; host or cells: baculovirus expression system
# T2 sequence (P04626 23-1255): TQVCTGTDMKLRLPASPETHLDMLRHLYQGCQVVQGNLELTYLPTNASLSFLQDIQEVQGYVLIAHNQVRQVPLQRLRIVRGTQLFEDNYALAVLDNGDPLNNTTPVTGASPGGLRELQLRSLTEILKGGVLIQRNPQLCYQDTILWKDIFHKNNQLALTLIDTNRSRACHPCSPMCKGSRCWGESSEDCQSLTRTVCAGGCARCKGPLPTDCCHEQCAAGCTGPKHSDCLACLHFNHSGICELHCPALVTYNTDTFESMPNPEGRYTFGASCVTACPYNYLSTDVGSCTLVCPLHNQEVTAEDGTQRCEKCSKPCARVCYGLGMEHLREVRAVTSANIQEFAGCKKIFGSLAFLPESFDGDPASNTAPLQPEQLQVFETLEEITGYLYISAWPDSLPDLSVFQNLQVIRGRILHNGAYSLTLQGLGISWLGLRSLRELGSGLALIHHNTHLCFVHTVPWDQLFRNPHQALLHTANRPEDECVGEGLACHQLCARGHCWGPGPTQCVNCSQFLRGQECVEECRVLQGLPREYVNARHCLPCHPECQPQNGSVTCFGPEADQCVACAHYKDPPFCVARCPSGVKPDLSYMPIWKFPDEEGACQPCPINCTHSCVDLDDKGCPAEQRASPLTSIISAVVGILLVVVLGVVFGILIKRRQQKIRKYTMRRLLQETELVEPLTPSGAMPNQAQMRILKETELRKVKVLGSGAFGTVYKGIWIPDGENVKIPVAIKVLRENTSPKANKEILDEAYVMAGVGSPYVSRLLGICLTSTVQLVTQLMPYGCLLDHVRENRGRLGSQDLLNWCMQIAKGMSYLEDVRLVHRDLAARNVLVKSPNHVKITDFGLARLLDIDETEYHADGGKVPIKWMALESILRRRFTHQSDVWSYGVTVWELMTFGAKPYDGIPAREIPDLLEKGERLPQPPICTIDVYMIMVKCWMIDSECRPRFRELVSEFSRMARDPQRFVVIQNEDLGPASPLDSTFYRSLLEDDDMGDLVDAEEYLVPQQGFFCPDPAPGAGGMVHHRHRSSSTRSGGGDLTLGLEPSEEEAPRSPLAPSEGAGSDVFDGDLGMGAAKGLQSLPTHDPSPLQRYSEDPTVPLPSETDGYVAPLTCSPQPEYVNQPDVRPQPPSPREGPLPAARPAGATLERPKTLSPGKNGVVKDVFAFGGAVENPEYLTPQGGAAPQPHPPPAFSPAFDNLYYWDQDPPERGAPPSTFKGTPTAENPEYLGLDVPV
# Method: as §4, §5, §6, §7, §8, §9, §10
# B-Raf = B-Raf (Homo sapiens, UniProt P15056); assay: B-Raf Accelerated MEK ATPase assay (BRAMA), Method A or B; format: biochemical; settings: Method B: final MEK 150 nM, single end point read
# Sequence of B-Raf (P15056 whole entry): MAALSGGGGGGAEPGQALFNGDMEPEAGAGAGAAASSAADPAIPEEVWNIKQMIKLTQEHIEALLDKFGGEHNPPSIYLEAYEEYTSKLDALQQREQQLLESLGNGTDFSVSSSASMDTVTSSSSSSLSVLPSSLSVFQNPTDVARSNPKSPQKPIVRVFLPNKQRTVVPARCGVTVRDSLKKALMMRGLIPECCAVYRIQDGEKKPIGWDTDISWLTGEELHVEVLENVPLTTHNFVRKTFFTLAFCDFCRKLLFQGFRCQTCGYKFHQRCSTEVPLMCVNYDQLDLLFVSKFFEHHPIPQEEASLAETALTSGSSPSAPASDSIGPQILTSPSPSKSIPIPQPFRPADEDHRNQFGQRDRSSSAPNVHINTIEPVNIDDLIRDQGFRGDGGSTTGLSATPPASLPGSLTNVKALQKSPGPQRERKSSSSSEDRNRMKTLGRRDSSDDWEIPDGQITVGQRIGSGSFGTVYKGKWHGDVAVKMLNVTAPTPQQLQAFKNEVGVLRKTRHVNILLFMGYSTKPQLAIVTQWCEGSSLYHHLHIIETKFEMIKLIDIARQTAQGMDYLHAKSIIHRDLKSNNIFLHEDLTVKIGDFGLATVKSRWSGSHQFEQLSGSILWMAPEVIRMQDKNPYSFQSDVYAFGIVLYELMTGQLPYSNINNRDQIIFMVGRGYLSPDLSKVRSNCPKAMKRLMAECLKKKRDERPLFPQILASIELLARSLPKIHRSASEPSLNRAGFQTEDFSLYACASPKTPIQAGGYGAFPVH
# Method: Compounds of the present invention were tested for B-Raf protein serine kinase inhibitory activity in a B-Raf Accelerated MEK ATPase assay (BRAMA). The BRAMA assay is a high sensitivity assay which measures an intrinsic MEK-mediated ATP hydrolysis uncoupled from downstream ERK phosphorylation by coupling the formation of ADP to NADH oxidation through the enzymes pyruvate kinase and lactate dehydrogenase. When ADP production is initiated by addition of catalytic amounts of an activated Raf enzyme and non-phosphorylated MEK, one observes robust ADP production concomitant with Raf-mediated phosphorylation of MEK.
# Method A: Specific details of the assay are disclosed in: C. Rominger, M. Schaber, E. May. Assay for B-Raf Activity Based on Intrinsic MEK ATPase Activity. Statutory Invention Registration 11/084,993 (March, 2005). Method B: The method is the same as method A, but includes the following changes: 1) the assay was performed with a final MEK concentration of 150 nM and 2) the assay was read as single end point instead of a kinetic read.
# Colo205 tumor cells = assay: Cell growth inhibition assay (CellTiter-Glo), Colo205; format: cell-based, Human; settings: Homo sapiens, COLO 205, 72 h; 3 days incubation
# Method: as §1, §2, §3
SMILES,IC50 (SK-MEL-28 tumor cells) [nM],IC50 (EGFR) [nM],IC50 (ErbB2) [nM],IC50 (B-Raf) [nM],IC50 (Colo205 tumor cells) [nM]
COc1cc(N2CCN(CCS(C)(=O)=O)CC2)c(C)cc1Nc1nccc(-c2oc(N3CCCC3)nc2-c2cccc(NS(=O)(=O)c3c(F)cccc3F)c2)n1 [Example 136],100 to 1000,100 to 1000,100 to 1000,100 to 1000,100 to 1000
CC(C)c1nc(-c2cccc(NS(=O)(=O)c3cccc(OC(F)F)c3)c2)c(-c2ccnc(Nc3ccc(N4CCOCC4)nc3)n2)s1 [Example 141],100 to 1000,> 1000,100 to 1000,100 to 1000,100 to 1000
O=S(=O)(Nc1cccc(-c2nc(-c3ccc(F)c(Cl)c3)sc2-c2ccnc(Nc3ccc(N4CCOCC4)nc3)n2)c1F)c1c(F)cccc1F [Example 143],< 100,> 1000,> 1000,< 100,100 to 1000
CC(C)c1nc(-c2ccc(F)c(NS(=O)(=O)c3c(F)cccc3F)c2)c(-c2ccnc(Nc3ncc[nH]3)n2)s1 [Example 147],100 to 1000,> 1000,> 1000,100 to 1000,100 to 1000
COc1cc(N2CCN(CCS(C)(=O)=O)CC2)c(C)cc1Nc1nccc(-c2sc(C3CCCC3)nc2-c2cccc(NS(=O)(=O)c3c(F)cccc3F)c2)n1 [Example 149],100 to 1000,> 1000,100 to 1000,100 to 1000,< 100
COc1cc(N2CCN(CCS(C)(=O)=O)CC2)c(C)cc1Nc1nccc(-c2sc(C3CCOCC3)nc2-c2cccc(NS(=O)(=O)c3c(F)cccc3F)c2)n1 [Example 150],< 100,< 100,< 100,< 100,< 100
COc1cc(CCN2CCCCC2)c(F)cc1Nc1nccc(-c2sc(C(C)C)nc2-c2cccc(NS(=O)(=O)c3c(F)cccc3F)c2)n1 [Example 156],100 to 1000,100 to 1000,100 to 1000,< 100,100 to 1000

# Second part, the compound after the results:
IC50 (SK-MEL-28 tumor cells) [nM],IC50 (EGFR) [nM],IC50 (ErbB2) [nM],IC50 (B-Raf) [nM],IC50 (Colo205 tumor cells) [nM],SMILES
100 to 1000,< 100,100 to 1000,100 to 1000,100 to 1000,COc1cc(N2CCN(CCS(C)(=O)=O)CC2)c(C)cc1Nc1nccc(-c2sc(C)nc2-c2cccc(NS(=O)(=O)c3c(F)cccc3F)c2)n1 [Example 134]
100 to 1000,> 1000,100 to 1000,< 100,100 to 1000,CC(C)c1nc(-c2ccc(F)c(NS(=O)(=O)c3ccccc3C(F)(F)F)c2)c(-c2ccnc(Nc3ccc(N4CCOCC4)nc3)n2)s1 [Example 135]
< 100,> 1000,> 1000,< 100,100 to 1000,Cc1cc(CS(C)(=O)=O)ccc1Nc1nccc(-c2sc(C(C)C)nc2-c2ccc(F)c(NS(=O)(=O)c3c(F)cccc3F)c2)n1 [Example 138]
100 to 1000,> 1000,> 1000,< 100,100 to 1000,CC(C)c1nc(-c2cccc(NS(=O)(=O)c3c(F)cccc3F)c2)c(-c2ccnc(Nc3cnc(N4CCOCC4)cc3O)n2)s1 [Example 139]
> 1000,> 1000,100 to 1000,< 100,> 1000,CC(C)c1nc(-c2cccc(NS(=O)(=O)c3ccc(C(C)(C)C)cc3)c2)c(-c2ccnc(Nc3ccc(N4CCOCC4)nc3)n2)s1 [Example 142]
100 to 1000,100 to 1000,< 100,100 to 1000,100 to 1000,COc1cc(N2CCN(CCS(C)(=O)=O)CC2)c(C)cc1Nc1nccc(-c2sc(C(C)C)nc2-c2cc(NS(=O)(=O)c3c(F)cccc3F)ccc2F)n1 [Example 144]
100 to 1000,> 1000,> 1000,100 to 1000,100 to 1000,CC(C)c1nc(-c2ccc(F)c(NS(=O)(=O)c3c(F)cccc3F)c2)c(-c2ccnc(Nc3ccncn3)n2)s1 [Example 148]
100 to 1000,< 100,< 100,< 100,< 100,CCNc1nc(-c2cccc(NS(=O)(=O)c3c(F)cccc3F)c2)c(-c2ccnc(Nc3cc(C)c(N4CCN(CCS(C)(=O)=O)CC4)cc3OC)n2)s1 [Example 153]
< 100,> 1000,> 1000,< 100,< 100,O=S(=O)(Nc1cccc(-c2nc(N3CCCCC3)sc2-c2ccnc(Nc3ccc(N4CCOCC4)c(F)c3)n2)c1)c1c(F)cccc1F [Example 154]
